Data as given in ChEMBL document CHEMBL4152332, “Discovery and synthesis of novel magnolol derivatives with potent anticancer activity in non-small cell lung cancer” (Eur J Med Chem, 2018).
Converted amounts (≈) assume the structure as drawn.

Assays:
HCC827 [1] = assay: Antiproliferative activity against human HCC827 cells after 72 hrs by MTT assay; format: functional, cell-based; details: HCC827, 72 h
NCI-H1975 [2] = assay: Antiproliferative activity against human NCI-H1975 cells after 72 hrs by MTT assay; format: functional, cell-based; details: NCI-H1975, 72 h
NCI-H460 [3] = assay: Antiproliferative activity against human H460 cells after 72 hrs by MTT assay; format: functional, cell-based; details: NCI-H460, 72 h
A549 = assay: Antiproliferative activity against human A549 cells after 72 hrs by MTT assay; format: functional, cell-based; details: A549, 72 h
[4] = Antiproliferative activity against human SPC-A1 cells after 72 hrs by MTT assay; format: functional, cell-based; details: SPCA1, 72 h
NCI-H1650 = assay: Antiproliferative activity against human NCI-H1650 cells after 72 hrs by MTT assay; format: functional, cell-based; details: NCI-H1650, 72 h
PC-9 = assay: Antiproliferative activity against human PC9 cells after 72 hrs by MTT assay; format: functional, cell-based; details: PC-9, 72 h
NCI-H441 = assay: Antiproliferative activity against human H441 cells after 72 hrs by MTT assay; format: functional, cell-based; details: NCI-H441, 72 h
NCI-H358 = assay: Antiproliferative activity against human NCI-H358 cells after 72 hrs by MTT assay; format: functional, cell-based; details: NCI-H358, 72 h
[5] = Apparent aqueous solubility of the compound by HPLC analysis; format: physicochemical; details: aqueous solution
NCI-H1975 [6] = assay: Cell cycle arrest in human NCI-H1975 cells assessed as increase in accumulation at G0/G1 phase after 24 hrs by propidium iodide staining-based flow cytometric analysis; format: functional
NCI-H1975 [7] = assay: Cell cycle arrest in human NCI-H1975 cells assessed as reduction in accumulation at S phase after 24 hrs by propidium iodide staining-based flow cytometric analysis; format: functional
NCI-H1975 [8] = assay: Cell cycle arrest in human NCI-H1975 cells assessed as reduction in accumulation at G2/M phase after 24 hrs by propidium iodide staining-based flow cytometric analysis; format: functional
NCI-H1975 [9] = assay: Cell cycle arrest in human NCI-H1975 cells assessed as accumulation at G0/G1 phase at 5 uM after 24 hrs by propidium iodide staining-based flow cytometric analysis (reference value: 56.11%); format: functional
NCI-H1975 [10] = assay: Cell cycle arrest in human NCI-H1975 cells assessed as accumulation at S phase at 5 uM after 24 hrs by propidium iodide staining-based flow cytometric analysis (reference value: 22.93%); format: functional
NCI-H1975 [11] = assay: Cell cycle arrest in human NCI-H1975 cells assessed as accumulation at G2/M phase at 5 uM after 24 hrs by propidium iodide staining-based flow cytometric analysis (reference value: 20.11%); format: functional
NCI-H1975 [12] = assay: Cell cycle arrest in human NCI-H1975 cells assessed as accumulation at G0/G1 phase at 10 uM after 24 hrs by propidium iodide staining-based flow cytometric analysis (reference value: 56.11%); format: functional
NCI-H1975 [13] = assay: Cell cycle arrest in human NCI-H1975 cells assessed as accumulation at S phase at 10 uM after 24 hrs by propidium iodide staining-based flow cytometric analysis (reference value: 22.93%); format: functional
NCI-H1975 [14] = assay: Cell cycle arrest in human NCI-H1975 cells assessed as accumulation at G2/M phase at 10 uM after 24 hrs by propidium iodide staining-based flow cytometric analysis (reference value: 20.11%); format: functional
NCI-H1975 [15] = assay: Cell cycle arrest in human NCI-H1975 cells assessed as accumulation at G0/G1 phase at 20 uM after 24 hrs by propidium iodide staining-based flow cytometric analysis (reference value: 56.11%); format: functional
NCI-H1975 [16] = assay: Cell cycle arrest in human NCI-H1975 cells assessed as accumulation at S phase at 20 uM after 24 hrs by propidium iodide staining-based flow cytometric analysis (reference value: 22.93%); format: functional
NCI-H1975 [17] = assay: Cell cycle arrest in human NCI-H1975 cells assessed as accumulation at G2/M phase at 20 uM after 24 hrs by propidium iodide staining-based flow cytometric analysis (reference value: 20.11%); format: functional
NCI-H1975 [18] = assay: Induction of apoptosis in human NCI-H1975 cells after 48 hrs by annexin V/FITC-propidium iodide staining-based flow cytometric method; format: functional, cell-based
NCI-H1975 [19] = assay: Induction of apoptosis in human NCI-H1975 cells assessed as early apoptotic cells at 5 uM after 48 hrs by annexin V/FITC-propidium iodide staining-based flow cytometric method ( Rvb = 6.09%); format: functional
NCI-H1975 [20] = assay: Induction of apoptosis in human NCI-H1975 cells assessed as late apoptotic cells at 5 uM after 48 hrs by annexin V/FITC-propidium iodide staining-based flow cytometric method ( Rvb = 10.4%); format: functional
NCI-H1975 [21] = assay: Induction of apoptosis in human NCI-H1975 cells assessed as necrotic cells at 5 uM after 48 hrs by annexin V/FITC-propidium iodide staining-based flow cytometric method ( Rvb = 1.01%); format: functional
NCI-H1975 [22] = assay: Induction of apoptosis in human NCI-H1975 cells assessed as viable cells at 5 uM after 48 hrs by annexin V/FITC-propidium iodide staining-based flow cytometric method ( Rvb = 82.5%); format: functional; details: NCI-H1975, 48 h, read-out: Activity
NCI-H1975 [23] = assay: Induction of apoptosis in human NCI-H1975 cells assessed as early apoptotic cells at 10 uM after 48 hrs by annexin V/FITC-propidium iodide staining-based flow cytometric method ( Rvb = 6.09%); format: functional
NCI-H1975 [24] = assay: Induction of apoptosis in human NCI-H1975 cells assessed as late apoptotic cells at 10 uM after 48 hrs by annexin V/FITC-propidium iodide staining-based flow cytometric method ( Rvb = 10.4%); format: functional
NCI-H1975 [25] = assay: Induction of apoptosis in human NCI-H1975 cells assessed as necrotic cells at 10 uM after 48 hrs by annexin V/FITC-propidium iodide staining-based flow cytometric method ( Rvb = 1.01%); format: functional
NCI-H1975 [26] = assay: Induction of apoptosis in human NCI-H1975 cells assessed as viable cells at 10 uM after 48 hrs by annexin V/FITC-propidium iodide staining-based flow cytometric method ( Rvb = 82.5%); format: functional; details: NCI-H1975, 48 h, read-out: Activity
NCI-H1975 [27] = assay: Induction of apoptosis in human NCI-H1975 cells assessed as early apoptotic cells at 20 uM after 48 hrs by annexin V/FITC-propidium iodide staining-based flow cytometric method ( Rvb = 6.09%); format: functional
NCI-H1975 [28] = assay: Induction of apoptosis in human NCI-H1975 cells assessed as late apoptotic cells at 20 uM after 48 hrs by annexin V/FITC-propidium iodide staining-based flow cytometric method ( Rvb = 10.4%); format: functional
NCI-H1975 [29] = assay: Induction of apoptosis in human NCI-H1975 cells assessed as necrotic cells at 20 uM after 48 hrs by annexin V/FITC-propidium iodide staining-based flow cytometric method ( Rvb = 1.01%); format: functional
NCI-H1975 [30] = assay: Induction of apoptosis in human NCI-H1975 cells assessed as viable cells at 20 uM after 48 hrs by annexin V/FITC-propidium iodide staining-based flow cytometric method ( Rvb = 82.5%); format: functional; details: NCI-H1975, 48 h, read-out: Activity
HUVEC = assay: Antimigratory activity against HUVEC after 24 to 48 hrs by phase contrast/fluorescence microscopic analysis; format: functional, cell-based; details: Homo sapiens
Mus musculus = assay: Toxicity in Balb/c mouse implanted with mouse C26 cells assessed as reduction in body weight at 100 mg/kg, po qd treated for 10 days and measured every 2 days; format: organism-based; details: in vivo
HCC827 [31] = assay: Potency index, ratio of IC50 for honokiol to IC50 for test compound for antiproliferative activity against human HCC827 cells after 72 hrs by MTT assay; format: functional
NCI-H1975 [32] = assay: Potency index, ratio of IC50 for honokiol to IC50 for test compound for antiproliferative activity against human NCI-H1975 cells after 72 hrs by MTT assay; format: functional
NCI-H460 [33] = assay: Potency index, ratio of IC50 for honokiol to IC50 for test compound for antiproliferative activity against human H460 cells after 72 hrs by MTT assay; format: functional
HCC827 [34] = assay: Potency index, ratio of IC50 for magnolol to IC50 for test compound for antiproliferative activity against human HCC827 cells after 72 hrs by MTT assay; format: functional
NCI-H1975 [35] = assay: Potency index, ratio of IC50 for magnolol to IC50 for test compound for antiproliferative activity against human NCI-H1975 cells after 72 hrs by MTT assay; format: functional
NCI-H460 [36] = assay: Potency index, ratio of IC50 for magnolol to IC50 for test compound for antiproliferative activity against human H460 cells after 72 hrs by MTT assay; format: functional

C=CCc1ccc(O)c(-c2cc(CC=C)cc(CN3CCCC(N)C3)c2O)c1 (stereo not drawn)
IC50 (HCC827 [1]): 4.87 µM
IC50 (NCI-H1975 [2]): 4.82 µM
IC50 (NCI-H460 [3]): 5.71 µM
IC50 (A549): 7.46 µM
IC50 [4]: 8.43 µM
IC50 (NCI-H1650): 6.93 µM
IC50 (PC-9): 11.4 µM
IC50 (NCI-H441): 7.48 µM
IC50 (NCI-H358): 9.51 µM
solubility [5]: 4080 µg/mL (≈ 10.8 mM)
Activity (NCI-H1975 [6]): Dose-dependent effect
Activity (NCI-H1975 [7]): Dose-dependent effect
Activity (NCI-H1975 [8]): Dose-dependent effect
Activity (NCI-H1975 [9]): 65.67%
Activity (NCI-H1975 [10]): 16.29%
Activity (NCI-H1975 [11]): 16.05%
Activity (NCI-H1975 [12]): 70.32%
Activity (NCI-H1975 [13]): 9.26%
Activity (NCI-H1975 [14]): 18.21%
Activity (NCI-H1975 [15]): 79.88%
Activity (NCI-H1975 [16]): 4.75%
Activity (NCI-H1975 [17]): 13.83%
Activity (NCI-H1975 [18]): Dose-dependent effect
Activity (NCI-H1975 [19]): 7.56%
Activity (NCI-H1975 [20]): 22.5%
Activity (NCI-H1975 [21]): 0.74%
viability at 5 µM (NCI-H1975 [22]): 69.2%
Activity (NCI-H1975 [23]): 6.45%
Activity (NCI-H1975 [24]): 28.3%
Activity (NCI-H1975 [25]): 0.65%
viability at 10 µM (NCI-H1975 [26]): 64.6%
Activity (NCI-H1975 [27]): 40.6%
Activity (NCI-H1975 [28]): 57%
Activity (NCI-H1975 [29]): 0.38%
viability at 20 µM (NCI-H1975 [30]): 2.02%
Activity (HUVEC): Dose-dependent effect
Activity (Mus musculus): Toxic
Ratio IC50 (HCC827 [31]): 4
Ratio IC50 (NCI-H1975 [32]): 4
Ratio IC50 (NCI-H460 [33]): 4
Ratio IC50 (HCC827 [34]): 8
Ratio IC50 (NCI-H1975 [35]): 8
Ratio IC50 (NCI-H460 [36]): 8
